The values below come from patent US8263530B2, “Agrochemical formulations containing microcapsules” (priority 2006, dated 2012).

The nature of the data set: Storage stability: content of active ingredient in water dispersible granules. The data set is classed as physicochemical. As to the method:
A test on the storage stability was performed with the following results:
Comparison of stability of fluoroxypyr and metsulfuon-methyl when a WG granulation is made according to U.S. Pat. No. 5,688,743 (Dow) and the encapsulation step has been omitted and replaced by a joint milling of the corresponding amount of fluoroxypyr and metsulfuron-methyl: […]

Where [1] appears, read: FXY + MET 26 WG (Fluroxypyr 250 g/kg + Metsulfuron 10 g/kg WG, microencapsulated fluroxypyr), test item FXY-MSF_0604, column without storage.
The mark [2] stands for this setting: FXY + MET 26 WG (microencapsulated fluroxypyr), GLASS, 0 ± 2° C., after storage.
[3] abbreviates: FXY + MET 26 WG (microencapsulated fluroxypyr), GLASS, 54 ± 2° C., after storage.
Where [4] appears, read: FXY + MET 26 WG (microencapsulated fluroxypyr), PLASTIC, 0 ± 2° C., after storage.
The mark [5] stands for this setting: FXY + MET 26 WG (microencapsulated fluroxypyr), PLASTIC, 54 ± 2° C., after storage.
Where [6] appears, read: Fluroxypyr 250 g/kg + Metsulfuron 10 g/kg WG WITHOUT microencapsulation of fluroxypyr (joint milling, per US 5,688,743), test item FXY-MSF_060/, column without storage.
Setting [7] is: WG WITHOUT microencapsulation of fluroxypyr, GLASS, 0 ± 2° C., after storage.
The mark [8] stands for this setting: WG WITHOUT microencapsulation of fluroxypyr, GLASS, 54 ± 2° C., after storage.
Setting [9] is: WG WITHOUT microencapsulation of fluroxypyr, PLASTIC, 0 ± 2° C., after storage.
Setting [10] is: WG WITHOUT microencapsulation of fluroxypyr, PLASTIC, 54 ± 2° C., after storage.

`COc1nc(C)nc(NC(=O)NS(=O)(=O)c2ccccc2C(=O)O)n1` [Metsulfuron]: the “Content of active ingredient” value stood at 1.18 wt-% under setting [1]; 1.18 wt-% under setting [2]; 1.18 wt-% under setting [3]; 1.19 wt-% under setting [4]; 1.18 wt-% under setting [5]; 1.16 wt-% under setting [6]. Besides, the “Content of active ingredient” value under setting [7] amounted to 0.35 wt-%, the “Content of active ingredient” value under setting [8] was 0.21 wt-%, the “Content of active ingredient” value under setting [9] came to 0.39 wt-% and the “Content of active ingredient” value under setting [10] is 0.24 wt-%.
Regarding `Nc1c(Cl)c(F)nc(OCC(=O)O)c1Cl` [Fluroxypyr], the “Content of active ingredient” value runs as follows: under setting [1], 39.37 wt-%; under setting [2], 38.65 wt-%; under setting [3], 38.57 wt-%; under setting [4], 38.51 wt-%; under setting [5], 38.35 wt-%; under setting [6], 39.41 wt-%. Besides, the “Content of active ingredient” value came out at 34.44 wt-% under setting [7], 28.02 wt-% under setting [8], 36.34 wt-% under setting [9] and 16.05 wt-% under setting [10].
